# From US4957926A, “Method of treating herpesviruses” (priority 1988, dated 1990)
# Entries after “also recorded” stand apart in the source; their conditions may differ. Read-outs that look alike come from different tables or passages of the source.
# What was measured:
# HEF cells (strain MRC-5) = assay: HEF cell growth / monolayer appearance in HSV type II plaque reduction assay; assay type: cell-based, human; conditions: all concentrations (0.56-4.5 mM)
# Method: (§1) For plaque reduction assays, 24-well culture trays were seeded with HEF cells. Confluent monolayers were infected with virus to give initially about 100 plaque-forming-units (p.f.u.) per well. After a one hour absorption period the inocula were replaced by l.5ml of a maintenance medium incorporating 0.5% low gelling temperature agarose, supplemented with various concentrations of test compound. For tests with CMV, infected monolayers were fixed with 5% formalin in phosphate buffered saline (PBS) at 6-8 days post-infection and stained with 0.3% methylene blue after removal of the overlay; whereas, tests with HSV were conducted in the same manner but with the monolayer fixing at 2 days post infection. The mean plaque number was calculated from a multiple series of counts (e.g., duplicate, triplicate or quadruplicate), converted to a percentage of untreated controls and values plotted against the log10 drug concentration. The 50% effective dose (ED50) was determined from best line fits for the curves.
# [1] = tested on: Cytomegalovirus (Viral Strain Towne); assay: Cytomegalovirus Plaque Reduction Assay; assay type: cell-based
# Source text: (§2) For testing the N-Bu-DNJ against HSV, the HSV Type II strain HG52 described by Timbury, J. Gen. Virol. 13, 373-376 (1971), and Davis et al., Analyst 110, 605-609 (1985), is useful. For testing against CMV, the prototype CMV ADl69 strain described, for example, by Tyms et al., J. Gen. Virol. 68, 1563-1573 (1987), and in U.S. Pat. No. 4,743,560, is useful. Another useful CMV strain is the Towne strain described by Glazer et al., Ann. Inter. Med. 91, 676-683 (1979).
# (§3) Human embryo fibroblast cells (HEF) were grown in Eagles minimal essential medium supplemented with 7% fetal calf serum (FCS), 9 mM sodium bicarbonate and 7 mM HEPES buffer. In maintenance medium the supplements were adjusted to 2% FCS, 13 mM sodium bicarbonate and 14 mM HEPES. CMV, strain Towne, and HSV type II, strain […], were used in the following tests. CMV virus stocks were prepared and stored by technique as previously described by Tyms & Williamson, Nature 297, 690-691 […]. Herpes virus stocks were prepared and stored by technique as previously described by Davis et al., Analyst 110, 605-609 (1985). The HEF were human embryonic lung fibroblasts, strain MRC-5, as described by Tyms and Williamson, Nature 297, 690-691 (1982).
# as §1
# In a similar manner, the Effective Dosage Values (ED50) were determined from the curves of FIG. 1. A least squares fit of the data of FIG. 1 to an equation of the form: y=mx+b gave the following values: […]
# From these values, a 50% effective dose (ED50) was calculated to give the following values: […]
# [2] = tested on: Cytomegalovirus (Viral Strain Towne); assay: Yield Reduction Assay against infections with CMV (Towne strain); assay type: cell-based; conditions: for Plaque Count (infectivity titre): 10^1 dil.; for activity at 500 µM / activity at 2000 µM: read-out: % Virus Control
# Method: Antiviral activities of N-Bu-DNJ and comparative test compounds against infections with CMV (Towne strain) were also measured by the yield reduction assay as follows:
# HEF cells (MRC-5) were infected at high multiplicity of infection (about one p.f.u. per cell) and incubated with various concentrations of the test compounds for 5 and 6 days post infection. The level of infectious virus shed into the extracellular fluid was determined at 5 and 6 days by plaque assays as described above, using serial dilution of extracellular fluid to bring readings on scale.
# In Table VI, to calculate plaque-forming units (PFU) of the maintenance medium overlayering HEF cells, the plaque count at the most sensitive dilution (from Table V) was multiplied by dilution value and then by 5 (0.2 ml sample volumes used in test) to give PFU (per ml maintenance medium). (e.g. calculation of drug control: 31×10^3 ×5=1.6×10^5 PFU).
# [3] = tested on: Herpes Simplex Type II (Viral Strain HG52); assay: Herpes Simplex Type II Plaque Reduction Assay; assay type: cell-based; conditions: for Plaque Count: replicate counts
# Source text: as §2, §3, §1
# The mean plaque numbers determined on HEF cells exposed to varying amount of N-Bu-DNJ, N-Me-DNJ, N-He-DNJ, 2-deoxy-D-glucose and castanospermine were converted to percentage values (plaque count in presence of drug divided by mean value of untreated controls×100), and plotted as a function of drug concentration [drug (mM)].
# The 50% effective dose (ED50)--that amount of drug needed to reduce plaque count by 50%--was calculated to give the following values: […]
# [4] = Fleet et al., compound No. 57 vs. No. 16; cited from earlier work
# HSV type I = assay: preliminary tests with a HSV type I strain which did not form multinucleated giant cells; assay type: cell-based; conditions: strain not forming giant cells
# Source text: The formation of multinucleated giant cells (syncytia), which result from the fusion of T4 cells with each other, is one of the most striking properties of HIV [Walker et al., Proc. Natl. Acad. Sci. USA 84, 8120-8124 (1987); Gruters et al., Nature 330, 74-77 (1987)]. Some, but not all, HSV strains also produce these multinucleated giant cells in vitro cell culture.
compound,measurement,setting,value
"CCCCN1C[C@H](O)[C@@H](O)[C@H](O)[C@H]1CO [N-Bu-DNJ, Nbutyl deoxynojirimycin]",HEF cell growth (in words),HEF cells (strain MRC-5),grew normally
same,EC50,"[1]; Human betaherpesvirus 5, HEF, CMV, calculated from least squares fit of FIG. 1, read-out: 50% effective dose (ED50)",570 µM
same,activity at 220 µM,"[1]; Human betaherpesvirus 5, HEF, Table IV, 0.22 mM, read-out: % Virus control",87%
same,activity at 450 µM,"[1]; Human betaherpesvirus 5, HEF, Table IV, 0.45 mM, read-out: % Virus control",52%
same,activity at 900 µM,"[1]; Human betaherpesvirus 5, HEF, Table IV, 0.90 mM, read-out: % Virus control",32%
same,activity at 1800 µM,"[1]; Human betaherpesvirus 5, HEF, Table IV, 1.8 mM, read-out: % Virus control",17%
same,Plaque Count Avg,"[1]; Table IV, 0.22 mM",153
same,Plaque Count,"[1]; Table IV, 0.22 mM, replicate counts","159,156,144,153"
same,Plaque Count Avg,"[1]; Table IV, 0.45 mM",92
same,Plaque Count Avg,"[1]; Table IV, 0.90 mM",56
same,Plaque Count Avg,"[1]; Table IV, 1.8 mM",30
same,reduction of CMV infection of HEF cells (in words),[1]; compared with castanospermine,reduces CMV infection of HEF cells at about the same dosage as does castanospermine
same,PFU,"[2]; 0.5 mM, 5 days HEF growth",8.5 × 10^5 PFU (per ml maintenance medium
same,Plaque Count (infectivity titre),"[2]; 0.5 mM, 5 days growth",~ 200
same,PFU,"[2]; 0.5 mM, 6 days HEF growth",1.3 × 10^4 PFU (per ml maintenance medium
same,Plaque Count (infectivity titre),"[2]; 0.5 mM, 6 days growth",~ 200
same,PFU,"[2]; 2.0 mM, 5 days HEF growth",1.4 × 10^3 PFU (per ml maintenance medium
same,PFU,"[2]; 2.0 mM, 6 days HEF growth",5.5 × 10^2 PFU (per ml maintenance medium
same,activity at 500 µM,"[2]; Human betaherpesvirus 5, MRC5, 120 h, 0.5 mM, 5 days HEF growth",5.3%
same,activity at 2000 µM,"[2]; Human betaherpesvirus 5, MRC5, 120 h, 2.0 mM, 5 days HEF growth",0.88%
same,activity at 500 µM,"[2]; Human betaherpesvirus 5, MRC5, 144 h, 0.5 mM, 6 days HEF growth",3.5%
same,activity at 2000 µM,"[2]; Human betaherpesvirus 5, MRC5, 144 h, 2.0 mM, 6 days HEF growth",0.15%
same,antiviral activity against HSV type II (in words),[3],substantially reduce herpesvirus type II infection of HEF cells; also recorded: strong antiviral activity
same,EC50,"[3]; HEF, HSV type II, amount of drug needed to reduce plaque count by 50%, read-out: 50% effective dose (ED50)",1200 µM
same,activity at 220 µM,"[3]; HEF, Table I, 0.22 mM, read-out: % Virus Control",85%
same,activity at 450 µM,"[3]; HEF, Table I, 0.45 mM, read-out: % Virus Control",60%
same,activity at 900 µM,"[3]; HEF, Table I, 0.9 mM, read-out: % Virus Control",37%
same,activity at 1800 µM,"[3]; HEF, Table I, 1.8 mM, read-out: % Virus Control",40%
same,activity at 3600 µM,"[3]; HEF, Table I, 3.6 mM, read-out: % Virus Control",7.7%
same,activity at 560 µM,"[3]; HEF, Table III, 0.56 mM, read-out: % Virus Control",56.9%
same,activity at 1120 µM,"[3]; HEF, Table III, 1.12 mM, read-out: % Virus Control",51%
same,activity at 2250 µM,"[3]; HEF, Table III, 2.25 mM, read-out: % Virus Control",27.5%
same,activity at 4500 µM,"[3]; HEF, Table III, 4.5 mM, read-out: % Virus Control",17.6%
same,Plaque Count Avg,"[3]; Table I, 0.22 mM",66
same,Plaque Count,"[3]; Table I, 0.22 mM","80,52"
same,Plaque Count Avg,"[3]; Table I, 0.45 mM",47
same,Plaque Count,"[3]; Table I, 0.45 mM","42,53"
same,Plaque Count Avg,"[3]; Table I, 0.9 mM",29
same,Plaque Count,"[3]; Table I, 0.9 mM","36,22"
same,Plaque Count Avg,"[3]; Table I, 1.8 mM",31
same,Plaque Count,"[3]; Table I, 1.8 mM","41,20"
same,Plaque Count Avg,"[3]; Table I, 3.6 mM",6
same,Plaque Count,"[3]; Table I, 3.6 mM","5,7"
same,Plaque Count Avg,"[3]; Table III, 0.56 mM",29
same,Plaque Count Avg,"[3]; Table III, 1.12 mM",26
same,Plaque Count Avg,"[3]; Table III, 2.25 mM",14
same,Plaque Count Avg,"[3]; Table III, 4.5 mM",9
same,cytotoxicity relative to castanospermine (in words),[4],substantially less cytotoxic
same,antiviral effect on HSV type I strain (in words),HSV type I,only minor effect
